Results reported in paper PMC11089505, “Structural Elucidation and Antiviral Activity of Covalent Cathepsin L Inhibitors” (Journal of Medicinal Chemistry, 2024).
“And” between values parts separate entries of the source, which are not always exact repeats. Equal entries are not always repeated.

Test system: SARS-CoV-2 Omicron variant BA.1 in Vero E6 cells
Test: microbe, parasite or virus in culture
Assay type: cell-based

| SMILES | reduction of quantity of viral RNA | EC50 (Severe acute respiratory syndrome coronavirus 2, Vero C1008, 24 h, read-out: EC50 (qRT-PCR)) | % RNA (qRT-PCR) |
| --- | --- | --- | --- |
| CCCC(NC(=O)C(CC(C)C)NC(=O)OCc1ccccc1)C(=O)C(=O)NCc1ccccn1 (stereo not drawn) [CI-XII, Benzyl N-[1-[[1.2-dioxo-1-(pyridin-2-ylmethylamino)hexan-3-yl]amino]-4-methyl-1-oxopentan-2-yl]carbamate] | more than 50% | < 100 nM |  |
| CCC(CC)COC(=O)[C@H](C)N[P@](=O)(OC[C@H]1O[C@@](C#N)(c2ccc3c(N)ncnn23)[C@H](O)[C@@H]1O)Oc1ccccc1 [Remdesivir] |  |  | 124.5% and 63.1% |
